Experiment: Solubility in oil (sesame oil, benzyl benzoate), visual observation
Conditions: benzyl benzoate, oil or lipid, thermodynamic from solid

Q: With `O=C(OCN1C(=O)CCc2ccc(OCCCCN3CCN(c4cccc5sccc45)CC3)cc21)C1CCCCCC1` [Example 106, cycloheptanecarboxylic acid 7-[4-(4-benzo[b]thiophen-4-ylpiperazin-1-yl)butoxy]-2-oxo-3,4-dihydro-2H-quinolin-1-ylmethyl ester] as the compound, how does the solubility read?
A: The solubility was > 100 mg/mL.

Q: With `O=C(NOCc1ccccc1)OCN1C(=O)CCc2ccc(OCCCCN3CCN(c4cccc5sccc45)CC3)cc21` [Example 107, benzyloxycarbamic acid 7-[4-(4-benzo[b]thiophen-4-ylpiperazin-1-yl)butoxy]-2-oxo-3,4-dihydro-2H-quinolin-1-ylmethyl ester] as the compound, how does the solubility read?
A: Its solubility is > 100 mg/mL.

Q: Which solubility does the source give for `CCCCCCCCCCCCCCCCC(=O)OCn1c(=O)ccc2ccc(OCCCCN3CCN(c4cccc5sccc45)CC3)cc21` [Example 108, heptadecanoic acid 7-[4-(4-benzo[b]thiophen-4-ylpiperazin-1-yl)butoxy]-2-oxo-2H-quinolin-1-ylmethyl ester] here?
A: The solubility was > 100 mg/mL.

Q: Which solubility does the source give for `COCCNC(=O)OCn1c(=O)ccc2ccc(OCCCCN3CCN(c4cccc5sccc45)CC3)cc21` [Example 109, N-(2-methoxyethyl)carbamic acid 7-[4-(4-benzo[b]thiophen-4-ylpiperazin-1-yl)butoxy]-2-oxo-2H-quinolin-1-ylmethyl ester] here?
A: Its solubility is > 100 mg/mL.

Q: With `O=C(NCc1ccco1)OCn1c(=O)ccc2ccc(OCCCCN3CCN(c4cccc5sccc45)CC3)cc21` [Example 110] as the compound, how does the solubility read?
A: Its solubility is > 100 mg/mL.

Q: Which solubility does the source give for `CN(Cc1ccccc1)C(=O)OCn1c(=O)ccc2ccc(OCCCCN3CCN(c4cccc5sccc45)CC3)cc21` [Example 111, N-benzyl-N-methylcarbamic acid 7-[4-(4-benzo[b]thiophen-4-ylpiperazin-1-yl)butoxy]-2-oxo-2H-quinolin-1-ylmethyl ester] here?
A: Its solubility is > 100 mg/mL.

Q: Which solubility does the source give for `C=CCNC(=O)OCn1c(=O)ccc2ccc(OCCCCN3CCN(c4cccc5sccc45)CC3)cc21` [Example 112, N-allylcarbamic acid 7-[4-(4-benzo[b]thiophen-4-ylpiperazin-1-yl)butoxy]-2-oxo-2H-quinolin-1-ylmethyl ester] here?
A: Its solubility is > 100 mg/mL.

Q: With `O=C(NCc1ccccn1)OCn1c(=O)ccc2ccc(OCCCCN3CCN(c4cccc5sccc45)CC3)cc21` [Example 113] as the compound, how does the solubility read?
A: Its solubility is > 100 mg/mL.

Q: With `C=CCCCCCCCCC(=O)OCN1C(=O)CCc2ccc(OCCCCN3CCN(c4cccc5sccc45)CC3)cc21` [Example 114, undec-10-enoic acid 7-[4-(4-benzo[b]thiophen-4-ylpiperazin-1-yl)butoxy]-2-oxo-3,4-dihydro-2H-quinolin-1-ylmethyl ester] as the compound, how does the solubility read?
A: The solubility was > 100 mg/mL.

Q: With `O=C(NCCc1ccccc1)OCn1c(=O)ccc2ccc(OCCCCN3CCN(c4cccc5sccc45)CC3)cc21` [Example 116, N-phenethylcarbamic acid 7-[4-(4-75 benzo[b]thiophen-4-ylpiperazin-1-yl)butoxy]-2-oxo-2H-quinolin-1-ylmethyl ester] as the compound, how does the solubility read?
A: Its solubility is > 100 mg/mL.

Q: For `CC(C)NC(=O)OCn1c(=O)ccc2ccc(OCCCCN3CCN(c4cccc5sccc45)CC3)cc21` [Example 117, N-isopropyl-carbamic acid 7-[4-(4-benzo[b]thiophen-4-ylpiperazin-1-yl)butoxy]-2-oxo-2H-quinolin-1-ylmethyl ester], which solubility is on record?
A: Its solubility is > 100 mg/mL.

Q: Which solubility does the source give for `O=C(OCn1c(=O)ccc2ccc(OCCCCN3CCN(c4cccc5sccc45)CC3)cc21)C1CCCCCC1` [Example 119, cycloheptanecarboxylic acid 7-[4-(4-benzo[b]thiophen-4-ylpiperazin-1-yl)butoxy]-2-oxo-2H-quinolin-1-ylmethyl ester] here?
A: Its solubility is > 100 mg/mL.

Q: For `O=C(OCN1C(=O)CCc2ccc(OCCCCN3CCN(c4cccc5sccc45)CC3)cc21)C1CCOCC1` [Example 120, tetrahydropyran-4-carboxylic acid 7-[4-(4-benzo[b]thiophen-4-ylpiperazin-1-yl)butoxy]-2-oxo-3,4-dihydro-2H-quinolin-1-ylmethyl ester], which solubility is on record?
A: Its solubility is > 100 mg/mL.

Q: Which solubility does the source give for `CC(C)(C)OC(=O)CC(=O)OCN1C(=O)CCc2ccc(OCCCCN3CCN(c4cccc5sccc45)CC3)cc21` [Example 121, malonic acid 7-[4-(4-benzo[b]thiophen-4-ylpiperazin-1-yl)butoxy]-2-oxo-3,4-dihydro-2H-quinolin-1-ylmethyl ester tert-butyl ester] here?
A: The solubility was > 100 mg/mL.

Q: Which solubility does the source give for `O=C(OCn1c(=O)ccc2ccc(OCCCCN3CCN(c4cccc5sccc45)CC3)cc21)N1CCC(F)(F)CC1` [Example 123, 4,4-difluoropiperidine-1-carboxylic acid 7-[4-(4-benzo[b]thiophen-4-ylpiperazin-1-yl)butoxy]-2-oxo-2H-quinolin-1-ylmethyl ester] here?
A: The solubility was > 100 mg/mL.

Q: With `O=C(CCC(F)(F)F)OCN1C(=O)CCc2ccc(OCCCCN3CCN(c4cccc5sccc45)CC3)cc21` [Example 124, 4,4,4-trifluorobutyric acid 7-[4-(4-benzo[b]thiophen-4-ylpiperazin-1-yl)butoxy]-2-oxo-3,4-dihydro-2H-quinolin-1-ylmethyl ester] as the compound, how does the solubility read?
A: The solubility was > 100 mg/mL.

Q: With `CN(Cc1ccco1)C(=O)OCn1c(=O)ccc2ccc(OCCCCN3CCN(c4cccc5sccc45)CC3)cc21` [Example 125, N-furan-2-ylmethyl-N-methylcarbamic acid 7-[4-(4-benzo[b]thiophen-4-ylpiperazin-1-yl)butoxy]-2-oxo-2H-quinolin-1-ylmethyl ester] as the compound, how does the solubility read?
A: Its solubility is > 100 mg/mL.

Q: Which solubility does the source give for `CC(C)CCC(=O)OCn1c(=O)ccc2ccc(OCCCCN3CCN(c4cccc5sccc45)CC3)cc21` [Example 126, 4-methylpentanoic acid 7-[4-(4-benzo[b]thiophen-4-ylpiperazin-1-yl)butoxy]-2-oxo-2H-quinolin-1-ylmethyl ester] here?
A: Its solubility is > 100 mg/mL.

Q: With `O=C(OCN1C(=O)CCc2ccc(OCCCCN3CCN(c4cccc5sccc45)CC3)cc21)C1CCC1` [Example 127, cyclobutanecarboxylic acid 7-[4-(4-benzo[b]thiophen-4-ylpiperazin-1-yl)butoxy]-2-oxo-3,4-dihydro-2H-quinolin-1-ylmethyl ester] as the compound, how does the solubility read?
A: The solubility was > 100 mg/mL.

Q: With `O=C(OCN1C(=O)CCc2ccc(OCCCCN3CCN(c4cccc5sccc45)CC3)cc21)c1ccc2occc2c1` [Example 128, benzofuran-5-carboxylic acid 7-[4-(4-benzo[b]thiophen-4-ylpiperazin-1-yl)butoxy]-2-oxo-3,4-dihydro-2H-quinolin-1-ylmethyl ester] as the compound, how does the solubility read?
A: Its solubility is > 100 mg/mL.

Q: For `CONC(=O)OCn1c(=O)ccc2ccc(OCCCCN3CCN(c4cccc5sccc45)CC3)cc21` [Example 129, N-methoxycarbamic acid (7-{4-[4-(benzo[b]thiophen-4-yl)piperazin-1-yl]butoxy}-2-oxo-2H-quinolin-1-yl)methyl], which solubility is on record?
A: Its solubility is > 100 mg/mL.

Q: Which solubility does the source give for `O=C(OCn1c(=O)ccc2ccc(OCCCCN3CCN(c4cccc5sccc45)CC3)cc21)C1CCOCC1` [Example 130, tetrahydropyran-4-carboxylic acid 7-[4-(4-benzo[b]thiophen-4-ylpiperazin-1-yl)butoxy]-2-oxo-2H-quinolin-1-ylmethyl ester] here?
A: The solubility was > 100 mg/mL.

Q: For `O=C(OCN1C(=O)CCc2ccc(OCCCCN3CCN(c4cccc5sccc45)CC3)cc21)c1cccs1` [Example 131, thiophene-2-carboxylic acid 7-[4-(4-benzo[b]thiophen-4-ylpiperazin-1-yl)butoxy]-2-oxo-3,4-dihydro-2H-quinolin-1-ylmethyl ester], which solubility is on record?
A: Its solubility is > 100 mg/mL.

Q: For `O=C(OCN1C(=O)CCc2ccc(OCCCCN3CCN(c4cccc5sccc45)CC3)cc21)c1cccnc1` [Example 132, nicotinic acid 7-[4-(4-benzo[b]thiophen-4-ylpiperazin-1-yl)butoxy]-2-oxo-3,4-dihydro-2H-quinolin-1-ylmethyl ester], which solubility is on record?
A: The solubility was > 100 mg/mL.

Q: Which solubility does the source give for `CCCCCCCCCCCCOC(=O)OCn1c(=O)ccc2ccc(OCCCCN3CCN(c4cccc5sccc45)CC3)cc21` [Example 134, carbonic acid 7-[4-(4-benzo[b]thiophen-4-ylpiperazin-1-yl)butoxy]-2-oxo-2H-quinolin-1-ylmethyl ester dodecyl ester] here?
A: Its solubility is > 100 mg/mL.

Q: For `CCCCCCCCCCOC(=O)OCn1c(=O)ccc2ccc(OCCCCN3CCN(c4cccc5sccc45)CC3)cc21` [Example 135, carbonic acid 7-[4-(4-benzo[b]thiophen-4-ylpiperazin-1-yl)butoxy]-2-oxo-2H-quinolin-1-ylmethyl ester decyl ester], which solubility is on record?
A: The solubility was > 100 mg/mL.

Q: With `O=C(OCn1c(=O)ccc2ccc(OCCCCN3CCN(c4cccc5sccc45)CC3)cc21)C1CCC1` [Example 136, cyclobutanecarboxylic acid 7-[4-(4-benzo[b]thiophen-4-ylpiperazin-1-yl)butoxy]-2-oxo-2H-quinolin-1-ylmethyl ester] as the compound, how does the solubility read?
A: The solubility was > 100 mg/mL.

Q: For `O=C(OCn1c(=O)ccc2ccc(OCCCCN3CCN(c4cccc5sccc45)CC3)cc21)c1ccc2occc2c1` [Example 137, benzofuran-5-carboxylic acid 7-[4-(4-benzo[b]thiophen-4-ylpiperazin-1-yl)butoxy]-2-oxo-2H-quinolin-1-ylmethyl ester], which solubility is on record?
A: The solubility was > 100 mg/mL.

Q: For `O=C(NCCC(F)(F)F)OCn1c(=O)ccc2ccc(OCCCCN3CCN(c4cccc5sccc45)CC3)cc21` [Example 139, N-(3,3,3-trifluoropropyl)carbamic acid 7-[4-(4-benzo[b]thiophen-4-ylpiperazin-1-yl)butoxy]-2-oxo-2H-quinolin-1-ylmethyl ester], which solubility is on record?
A: The solubility was > 100 mg/mL.

Q: Which solubility does the source give for `O=C(OC/C=C/c1ccccc1)OCn1c(=O)ccc2ccc(OCCCCN3CCN(c4cccc5sccc45)CC3)cc21` [Example 140, carbonic acid 7-[4-(4-benzo[b]thiophen-4-ylpiperazin-1-yl)butoxy]-2-oxo-2H-quinolin-1-ylmethyl ester (E)-3-phenyl-allyl ester] here?
A: The solubility was > 100 mg/mL.

Q: For `O=C(OCn1c(=O)ccc2ccc(OCCCCN3CCN(c4cccc5sccc45)CC3)cc21)c1cccs1` [Example 141, thiophene-2-carboxylic acid 7-[4-(4-benzo[b]thiophen-4-ylpiperazin-1-yl)butoxy]-2-oxo-2H-quinolin-1-ylmethyl ester], which solubility is on record?
A: Its solubility is > 100 mg/mL.

Q: With `CCCCCCCCCCOC(=O)OCN1C(=O)CCc2ccc(OCCCCN3CCN(c4cccc5sccc45)CC3)cc21` [Example 142, carbonic acid 7-[4-(4-benzo[b]thiophen-4-ylpiperazin-1-yl)butoxy]-2-oxo-3,4-dihydro-2H-quinolin-1-ylmethyl ester decyl ester] as the compound, how does the solubility read?
A: The solubility was > 100 mg/mL.

Same assay, conditions: sesame oil, oil or lipid, thermodynamic from solid

Q: With `CCCCCCCCCCCCOC(=O)OCn1c(=O)ccc2ccc(OCCCCN3CCN(c4cccc5sccc45)CC3)cc21` [Example 134, carbonic acid 7-[4-(4-benzo[b]thiophen-4-ylpiperazin-1-yl)butoxy]-2-oxo-2H-quinolin-1-ylmethyl ester dodecyl ester] as the compound, how does the solubility read?
A: The solubility was > 100 mg/mL.

Q: For `CCCCCCCCCCOC(=O)OCn1c(=O)ccc2ccc(OCCCCN3CCN(c4cccc5sccc45)CC3)cc21` [Example 135, carbonic acid 7-[4-(4-benzo[b]thiophen-4-ylpiperazin-1-yl)butoxy]-2-oxo-2H-quinolin-1-ylmethyl ester decyl ester], which solubility is on record?
A: Its solubility is > 100 mg/mL.

Q: For `CCCCCCCCCCOC(=O)OCN1C(=O)CCc2ccc(OCCCCN3CCN(c4cccc5sccc45)CC3)cc21` [Example 142, carbonic acid 7-[4-(4-benzo[b]thiophen-4-ylpiperazin-1-yl)butoxy]-2-oxo-3,4-dihydro-2H-quinolin-1-ylmethyl ester decyl ester], which solubility is on record?
A: The solubility was > 100 mg/mL.

Reference: patent US9539252B2, “Piperazine-substituted benzothiophene derivatives as antipsychotic agents” (OTSUKA PHARMACEUTICAL CO., LTD., priority 2011, dated 2017)
